Source: the NIST ThermoML archive (doi:10.1016/j.jct.2011.05.014)

Experiment: excess molar enthalpy (molar enthalpy of mixing); xn = mol fraction of the nth substance listed
Conditions: 298.15 K, 101.33 kPa, Liquid, Parr 1455 Solution Calorimeter

O=Cc1ccccc1 [benzaldehyde] + CCCCCO
Conditions	excess molar enthalpy [kcal/mol]
x1 = 0.0899	0.152
x1 = 0.1799	0.2818
x1 = 0.2699	0.38
x1 = 0.36	0.435
x1 = 0.4499	0.4637
x1 = 0.54	0.4661
x1 = 0.6259	0.4405
x1 = 0.6898	0.4032
x1 = 0.7523	0.357
x1 = 0.8094	0.2997
x1 = 0.8426	0.261
x1 = 0.9015	0.184

O=Cc1ccccc1 [benzaldehyde] + CCCCO
Conditions	excess molar enthalpy [kcal/mol]
x1 = 0.0759	0.142
x1 = 0.1555	0.256
x1 = 0.2374	0.3417
x1 = 0.3186	0.4036
x1 = 0.4053	0.4345
x1 = 0.4922	0.4468
x1 = 0.5824	0.4391
x1 = 0.6314	0.4243
x1 = 0.6755	0.4059
x1 = 0.7923	0.3146
x1 = 0.8945	0.195
x1 = 0.9245	0.146

O=Cc1ccccc1 [benzaldehyde] + CCCO
Conditions	excess molar enthalpy [kcal/mol]
x1 = 0.0896	0.158
x1 = 0.1797	0.2632
x1 = 0.2698	0.3294
x1 = 0.3598	0.3728
x1 = 0.4822	0.391
x1 = 0.5559	0.3871
x1 = 0.5989	0.3774
x1 = 0.647	0.3642
x1 = 0.7017	0.3388
x1 = 0.7626	0.3006
x1 = 0.8323	0.237
x1 = 0.9112	0.146

O=Cc1ccccc1 [benzaldehyde] + CCO
Conditions	excess molar enthalpy [kcal/mol]
x1 = 0.0912	0.141
x1 = 0.1809	0.2267
x1 = 0.2707	0.2786
x1 = 0.3603	0.3025
x1 = 0.4503	0.3107
x1 = 0.5405	0.3059
x1 = 0.628	0.2864
x1 = 0.669	0.2707
x1 = 0.7164	0.2485
x1 = 0.7714	0.2182
x1 = 0.8358	0.17
x1 = 0.9114	0.101

O=Cc1ccccc1 [benzaldehyde] + CO
Conditions	excess molar enthalpy [kcal/mol]
x1 = 0.0877	0.0955
x1 = 0.1795	0.1561
x1 = 0.2704	0.1984
x1 = 0.3608	0.2242
x1 = 0.4509	0.2352
x1 = 0.5406	0.2337
x1 = 0.6153	0.223
x1 = 0.6966	0.1983
x1 = 0.7344	0.1826
x1 = 0.7803	0.1603
x1 = 0.8379	0.128
x1 = 0.9092	0.078
